Experimental data reported in ChEMBL document CHEMBL1136792, “Synthesis of chiral 1-[omega-(4-chlorophenoxy)alkyl]-4-methylpiperidines and their biological evaluation at sigma1, sigma2, and sterol delta8-delta7 isomerase sites” (J Med Chem, 2003).
pKi: −log10 of the molar value.

Legend:
[1] = target: T1, 3-beta-hydroxysteroid-Delta(8),Delta(7)-isomerase (Cavia porcellus, UniProt Q60490); assay: Inhibition of [3H]-emopamil binding to Sterol delta 8-delta 7 isomerase in guinea pig liver membrane; assay type: cell membranes
T1 sequence (Q60490 whole entry): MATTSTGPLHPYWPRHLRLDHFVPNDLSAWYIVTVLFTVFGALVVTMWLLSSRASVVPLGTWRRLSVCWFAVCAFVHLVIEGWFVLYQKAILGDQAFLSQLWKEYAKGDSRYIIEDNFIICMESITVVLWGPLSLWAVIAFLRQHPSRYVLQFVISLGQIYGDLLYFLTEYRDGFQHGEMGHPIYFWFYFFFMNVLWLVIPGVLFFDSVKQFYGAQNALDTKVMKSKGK

Sigma 2 receptor = assay: Inhibition of [3H]DTG binding to Sigma receptor type 2 in rat liver membrane; assay type: cell membranes
[2] = target: Sigma non-opioid intracellular receptor 1 (Homo sapiens) (UniProt Q99720); assay: Relative affinity for sigma-2 over sigma-1 receptors
Cavia porcellus = species on record: Cavia porcellus; assay: Relative affinity for sterol delta-(8)-delta-(7) isomerase over sigma-1 receptor

Chain of Sigma non-opioid intracellular receptor 1 (Homo sapiens) (Q99720 whole entry): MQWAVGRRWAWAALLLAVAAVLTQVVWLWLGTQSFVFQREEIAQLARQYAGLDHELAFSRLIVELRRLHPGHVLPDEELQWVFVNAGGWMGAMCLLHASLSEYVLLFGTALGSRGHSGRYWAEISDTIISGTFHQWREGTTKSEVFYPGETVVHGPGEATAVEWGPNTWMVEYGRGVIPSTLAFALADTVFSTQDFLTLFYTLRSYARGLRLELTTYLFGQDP

| Compound | pKi [1] | pKi (Sigma 2 receptor) | Ratio [2] | Ratio (Cavia porcellus) |
| --- | --- | --- | --- | --- |
| CC1CCN([C@H](C)COc2ccc(Cl)cc2)CC1 | 7.56 | 7.28 | 44 | 23 |
| CC1CCN(C[C@@H](C)COc2ccc(Cl)cc2)CC1 | 7.73 | 7.21 | 36 | 11 |
| CC1CCN(C[C@@H](C)Oc2ccc(Cl)cc2)CC1 | 8.47 | 6.50 | – | – |
| CC(C(O)c1ccc(O)cc1)N1CCC(Cc2ccccc2)CC1 (racemic) [IFENPRODIL] | 8.57 | – | – | – |
| CC1CCN(CCCOc2ccc(Cl)cc2)CC1 | 8.02 | 7.41 | – | – |
| CC1CCN(C[C@H](C)Oc2ccc(Cl)cc2)CC1 | 7.45 | 6.48 | – | – |
| CC1CCN([C@H](C)CCOc2ccc(Cl)cc2)CC1 | 8.11 | 7.82 | – | – |

Continued, values first:

| pKi [1] | pKi (Sigma 2 receptor) | Ratio [2] | Ratio (Cavia porcellus) | Compound |
| --- | --- | --- | --- | --- |
| 8.43 | 6.62 | – | – | CC1CCN(CCOc2ccc(Cl)cc2)CC1 |
| – | 6.26 | – | – | C(/C=C/c1ccc2c(c1)OCO2)=C\CN1CCCCC1 |
| 7.52 | 7.86 | – | – | CC1CCN(CC[C@@H](C)Oc2ccc(Cl)cc2)CC1 |
| 7.43 | 7.50 | – | – | CC1CCN([C@@H](C)CCOc2ccc(Cl)cc2)CC1 |
| 7.84 | 7.39 | 37 | 13 | CC1CCN(C[C@H](C)COc2ccc(Cl)cc2)CC1 |
| 7.92 | 7.18 | – | – | CC1CCN(CC[C@H](C)Oc2ccc(Cl)cc2)CC1 |
| 8.43 | 6.73 | 547 | 11 | CC1CCN([C@@H](C)COc2ccc(Cl)cc2)CC1 |
